Where two headings read alike, the source gives them in different places.
Tests used:
winter rapeseed = conditions: for more aboveground dry matter compared to control: last harvest date, fully ripe
Description: The experiment was established using the long strip method in four repetitions. The dimensions of the plots at establishment were 96 m^2 gross, while the harvestable area was 23.25 m^2 net.
In the experiment, uniform NPK fertilization was applied, using both bulk and liquid fertilizers.
The following facilities were included in the experiment: • 1. control, no stimulant application, standard fungicide protection • 2. stimulant applied at stage 31-32 according to the BBCH development scale, standard fungicide protection • 3. stimulant applied at stage 53-55 according to the BBCH development scale, no fungicide protection

tomato seedlings = experiment: Tomato seedlings in pots sprayed 3 times: height, fresh and dry weight, chlorophyll (Example 3); type: in vivo; conditions: 80 mg/L, benzothiadiazole salt 30 mg/L
Description: Tomato seedlings (12 according to development scale BBCH) were planted into pots with peat substrate (P9 pots having 0.5 l). Plant pots were placed in greenhouse and cultivated for a 1 and a half month. Plants were sprayed with tested substance 3 times, in 10-day interval. […] 2-methoxyethyl(trimethyl)-ammonium benzo[1,2,3]thiadiazole-7-carboxylate; 3. […] 2-methoxyethyl(trimethyl)ammonium 3-chlorosalicylate; 7. 2-ethoxyethyl(trimethyl)ammonium 3-chlorosalicylate; 8. ethyl(trimethyl)ammonium 3-chlorosalicylate at a concentration od 80 mg/l. Plants were sprayed with tested substances three times at 10-day intervals. Plants in peat substrate treated with water only were the control. During the course of the experiment, the height of the plants was measured, and at the end the fresh and dry weight of the aboveground part was evaluated. Moreover chlorophyll content was measured. The experiment was conducted in 4 repetitions with 5 plants in each (a total of 20 plants per each variant of treatment).

bell pepper = experiment: Bell pepper seedlings in pots sprayed: height, fresh and dry weight (Example 5); type: in vivo; conditions: 3-chlorosalicylate 80 mg/L, benzothiadiazole salt 30 mg/L
Description: Pepper seedlings were planted into pots with peat substrate (P9 pots having 0,5 l). Pots were placed in greenhouse and cultivated for a 1 month. […] Plants treated with water only were the untreated control. During the course of the experiment, the height of the plants was measured, and at the end the fresh and dry weight of the aboveground part was evaluated.

broccoli = experiment: Broccoli seedlings in pots sprayed: height, fresh and dry weight (Example 4); type: in vivo
Description: Broccoli seedling were planted into pots with peat substrate (P9 pots having 0.5 l). Pots were placed in greenhouse and cultivated for a 1 month. […] 2-fluoroethyl(trimethyl)ammonium benzo[1,2,3]thiadiazole-7-carboxylate; 3. 2-bromoethyl(trimethyl)ammonium benzo[1,2,3]thiadiazole-7-carboxylate; 4. 2-chloroethyl(trimethyl)ammonium benzo[1,2,3]thiadiazole-7-carboxylate; 5. 2-iodoethyl(trimethyl)ammonium benzo[1,2,3]thiadiazole-7-carboxylate used at a concentration of 30 mg/L and 6. 2-hydroxyethyl(trimethyl)ammonium 3-chlorosalicylate (tested also at a concentration of 50 mg/L); 7. 3-chlorosalicylate 2-fluoroethyl(trimethyl)ammonium; 8. 3-chlorosalicylate 2-bromoethyl(trimethyl)ammonium; 9. 3-chlorosalicylate 2-chloroethyl(trimethyl)ammonium; 10. 3-chlorosalicylate 2-iodoethyl(trimethyl)ammonium used at a concentration of 80 mg/L. Plants were sprayed with tested substances three times at 10-day intervals. Plants treated with water only were the untreated control. During the course of the experiment, the height of the plants was measured, and at the end the fresh and dry weight of the aboveground part was evaluated. The experiment was conducted in 4 repetitions with 5 plants in each (a total of 20 plants per each combination).

[1] = BBCH 32, standard fungicide protection, 80 mg/L, benzothiadiazole salt 25 mg/L
[2] = BBCH 32, stimulant only, 80 mg/L, benzothiadiazole salt 25 mg/L
[3] = BBCH 55, standard fungicide protection, 80 mg/L, benzothiadiazole salt 25 mg/L
[4] = BBCH 55, without fungicide, 80 mg/L, benzothiadiazole salt 25 mg/L
[5] = first sampling date, stimulant at BBCH 31-32, no fungicide yet, 80 mg/L, benzothiadiazole salt 25 mg/L
[6] = second date, regardless of cultivation technology, 80 mg/L, benzothiadiazole salt 25 mg/L
[7] = 3-chlorosalicylate 80 mg/L, benzothiadiazole salt 30 mg/L

## C[N+](C)(C)CCO.O=C([O-])c1cccc(Cl)c1O [choline 3-chlorosalicylate]
Winter rapeseed; [1]
  increase in calcium uptake: 5%
  increase in magnesium uptake: 4%
  increase in nitrogen uptake: 6%
  increase in phosphorus uptake: 7%
  increase in potassium uptake: 6%
Winter rapeseed; [2]
  increase in calcium uptake: 8%
  increase in magnesium uptake: 12%
  increase in nitrogen uptake: 9%
  increase in phosphorus uptake: 7%
  increase in potassium uptake: 8%
Winter rapeseed; BBCH 32, with fungicide, 80 mg/L, benzothiadiazole salt 25 mg/L
  higher fat content: 6%
Winter rapeseed; BBCH 32, without fungicide, 80 mg/L, benzothiadiazole salt 25 mg/L
  higher fat content: 8%
Winter rapeseed; [3]
  increase in calcium uptake: 9%
  increase in fat content: 6%
  increase in magnesium uptake: 10%
  increase in nitrogen uptake: 11%
  increase in phosphorus uptake: 10%
  increase in potassium uptake: 8%
Winter rapeseed; [4]
  increase in calcium uptake: 10%
  increase in fat content: 5%
  increase in magnesium uptake: 12%
  increase in nitrogen uptake: 11%
  increase in phosphorus uptake: 10%
  increase in potassium uptake: 7%
Winter rapeseed; both fungicide and stimulant treatments, 80 mg/L, benzothiadiazole salt 25 mg/L
  seed yields higher compared to control: 20%
Winter rapeseed; first measurement date
  chlorophyll content, differences between the tested objects: no differences were observed
Winter rapeseed; [5]
  more biomass (dry weight) compared to control: 34%
  more biomass (fresh weight) compared to control: 36%
Winter rapeseed; only the stimulant, 80 mg/L, benzothiadiazole salt 25 mg/L
  more aboveground dry matter compared to control: 42%
Winter rapeseed; with fungicide protection, 80 mg/L, benzothiadiazole salt 25 mg/L
  more aboveground dry matter compared to control: 38%
Winter rapeseed; [6]
  more dry weight compared to control, on average: 32%
  more fresh weight compared to control, on average: 28%
Winter rapeseed; tested combinations, 80 mg/L, benzothiadiazole salt 25 mg/L
  weight of one thousand seeds higher compared to control: 10%
Winter rapeseed; with a fungicide, printed 'first date' (of second and third measurement dates), 80 mg/L, benzothiadiazole salt 25 mg/L
  more chlorophyll in the leaves (SPAD) compared to control: 5%
Winter rapeseed; with a fungicide, printed 'second date', 80 mg/L, benzothiadiazole salt 25 mg/L
  more chlorophyll in the leaves (SPAD) compared to control: 7%
Winter rapeseed; without a fungicide, printed 'first date', 80 mg/L, benzothiadiazole salt 25 mg/L
  more chlorophyll in the leaves (SPAD) compared to control: 6%
Winter rapeseed; without a fungicide, printed 'second date', 80 mg/L, benzothiadiazole salt 25 mg/L
  more chlorophyll in the leaves (SPAD) compared to control: 5%
Winter rapeseed; without fungicide protection, stimulant at BBCH 31-32, 80 mg/L, benzothiadiazole salt 25 mg/L
  seed yields higher compared to control: 10%
Tomato seedlings; chitosan lactate 50 mg/l
  Average plant height, before second treatment: 143.2 b mm
  Average plant height, before third treatment: 345.1 b mm
  Average plant height, initial height, before first treatment: 59.3 a mm
  Chlorophyll content (SPAD), a day after treatment #1: 74.6 b
  Chlorophyll content (SPAD), a day after treatment #2: 76.2 b
  Chlorophyll content (SPAD), a day after treatment #3: 79.3 b
  Plant height increase: 285.8 b mm
Tomato seedlings; above-ground part
  Average dry mass: 83.1 b g
  Average fresh mass: 327.7 b g
Tomato seedlings; before treatment #1, chitosan lactate 50 mg/l
  Chlorophyll content (SPAD), Treatment #1: 48.5 a
Tomato seedlings; before treatment #2, chitosan lactate 50 mg/l
  Chlorophyll content (SPAD), Treatment #2: 48.3 a
Tomato seedlings; before treatment #3, chitosan lactate 50 mg/l
  Chlorophyll content (SPAD), Treatment #3: 49.5 a
Bell pepper
  Average dry mass: 12.2 b g
  Average fresh mass: 85.7 b g
  Average plant height, initial height, before first treatment: 41.5 a mm
  Average plant height, second treatment: 161.8 c mm
  Average plant height, third treatment: 221.5 b mm
  Plant height increase: 180.0 b mm
broccoli; 50 mg/L
  Average dry mass: 0.6 b g
  Average fresh mass: 6.8 b g
  Average plant height, initial height, before first treatment: 37.6 b mm
  Average plant height, second treatment: 146.4 a mm
  Average plant height, third treatment: 178.5 a mm
  Plant height increase: 140.9 a mm
broccoli; [7]
  Average dry mass: 0.6 b g
  Average fresh mass: 6.7 b g
  Average plant height, initial height, before first treatment: 36.5 a mm
  Average plant height, second treatment: 146.0 a mm
  Average plant height, third treatment: 179.5 a mm
  Plant height increase: 143.0 a mm
